Holding throughout (assay type): cell-based
Assay [1] concerns MV4;11. The assay is described as follows: Cell growth assay, MV4;11. Particulars: Homo sapiens. On the procedure:
(§1) All media was supplemented with 100 U/mL penicillin and 100 μg/mL streptomycin. Human cancer cell lines were grown in the following media: MV4; 11, K562, MOLM-14 in RPMI-1640, 10% FBS; SKNO-1 in RPMI-1640, 10% FBS, and 10 ng/mL GM-CSF; MV4;11 and K562 were from ATCC. SKNO-1 was from DSMZ.
(§2) Cell Culture. All media was supplemented with 100 U/mL penicillin and 100 μg/mL streptomycin. Human cancer cell lines were grown in the following media: MV4; 11, RS4; 11, K562, HEL, MOLM-14, MEG-01 in RPMI-1640, 10% FBS; SET-2 in RPMI-1640, 20% FBS; UKE-1 in RPMI-1640, 10% FBS, 10% horse serum and 1 μM hydrocortisone; SKNO-1 and TF-1 in RPMI-1640, 10% FBS, and 10 or 2 ng/mL GM-CSF, respectively; HaCaT in DMEM, 10% FBS; and HCT116 in McCoy's 5 A, 10% FBS (proliferation assay) or DMEM, 10% FBS (gene expression study). HepG2, MV4;11, RS4;11, MEG-01, TF-1, HCT116 and K562 were from ATCC. SKNO-1 was from DSMZ. HEL, UKE-1, and SET-2 were provided by Ross L. Levine and HaCaT, MV4;11-mCLP, and MOLM-14 by Van Wilson, Andrew L. Kung, and Scott A. Armstrong, respectively. MOLM-14 cells were authenticated by STR profiling and flow cytometry and all cell lines were routinely tested and found to be negative for mycoplasma.

The test system of assay [2] is MOLM-14. The assay is described as follows: Cell growth assay, MOLM-14. Particulars: Homo sapiens. On the procedure:
as §1, §2

The subject of assay [3] is SKNO-1. The assay can be described thus: Cell growth assay, SKNO-1. Particulars: Homo sapiens. On the procedure: as §1, §2
The test system of assay [4] is K562. The assay can be described thus: Cell growth assay, K562. The following applies: Homo sapiens. How it is done: as §1, §2
The subject of assay [5] is SET-2. The assay is described as follows: Cell growth assay, SET-2. The following applies: Homo sapiens, SET-2, 72 h, read-out: Mean GI50 (nM), SET-2. On the procedure: as §2
The test system of assay [6] is TF-1. The assay can be described thus: Cell growth assay, TF-1. Particulars: Homo sapiens, TF-1, 72 h, read-out: Mean GI50 (nM), TF-1. How it is done:
as §2

For assay [7], the system named is HEL. The assay is described as follows: Cell growth assay, HEL. The following applies: Homo sapiens, 72 h, read-out: Mean GI50 (nM), HEL. How it is done:
as §2

In assay [8] the test system is MEG-01. The assay can be described thus: Cell growth assay, MEG-01. Particulars: Homo sapiens, MEG-01, 72 h, read-out: Mean GI50 (nM), MEG-01. On the procedure: as §2
Assay [9] relates to RS4;11. The assay is described as follows: Cell growth assay, RS4;11. The following applies: Homo sapiens, RS4-11, 72 h, read-out: Mean GI50 (nM), RS4;11. How it is done: as §2

Like-named read-outs stand apart in the source and are kept apart here.

As for `C[C@]12CC=C3C=C4CCC(=O)NC[C@]45CC[C@]3(O5)[C@@H]1CC[C@@H]2c1ccc2ccncc2c1` [Compound 15B], the GI50 in [1] (MV4-11, 240 h, read-out: MV4;11 GI50 day 10) is 3.75 nM; in assay [2] (MOLM-14, 240 h, read-out: MOLM14 GI50 day 10) it was 17.5 nM; in assay [3] (SKNO-1, 240 h, read-out: SKNO-1 GI50 day 10) it was 0.6 nM; in [4] (K562, 240 h, read-out: K562 GI50 day 10) it was > 1000 nM.
On to `COc1cc2c(cc1-c1c(C)noc1C)ncc1[nH]c(=O)n([C@H](C)c3ccccn3)c12` [I-BET151], for which the GI50 in assay [1] (MV4-11, 72 h, I-BET151, after 3 days, read-out: Mean GI50 (nM), MV4;11) came out at 20 nM; in assay [2] (MOLM-14, 72 h, I-BET151, after 3 days, read-out: Mean GI50 (nM), MOLM-14), 18 nM; in assay [5], 245 nM; in assay [3] (SKNO-1, 72 h, I-BET151, after 3 days, read-out: Mean GI50 (nM), SKNO-1) it was 50 nM; in [4] (K562, 72 h, I-BET151, after 3 days, read-out: Mean GI50 (nM), K562), 750 nM; in assay [6] it was 163 nM. Also, the GI50 in assay [7] is 200 nM; in assay [8], 375 nM; in [9] it was 200 nM.

Values taken from patent US10273240B2, “Cortistatin analogues, syntheses, and uses thereof” (President and Fellows of Harvard College, priority 2015, dated 2019).
